From patent US10874727B2, “Inducible regulatory t-cell generation for hematopoietic transplants” (The Trustees of the University of Pennsylvania, priority 2008, dated 2020) come the findings set out here.

Entries after “also recorded” stand apart in the source; their conditions may differ.

One series relates to CD4+25−45RA+ cells. Kind of series: Foxp3 expression at day 14 after Decitibine ± TGFβ induction and re-stimulation with anti-CD3 loaded KT64/86. The series is classed as cell-based, human. Particulars: for Foxp3 expression: Decitibine 5 μM day 7 ± TGFβ 10 ng/ml day 0, re-stimulated day 7. How it is done: The next set of experiments was designed to determine whether re-stimulation of iTreg increases the percentage of Foxp3++ cells. nTreg (CD4^+25^++) and CD4^+25^−45 RA^+ cells were purified from peripheral blood (PB) using magnetic beads and the cells were stimulated with anti-CD3 loaded KT64/86 cells (K562 cells modified to express an Fc receptor CD64 and CD86). nTreg were cultured in the presence of IL-2 (300 U/ml) and Rapamycin (109 nM) while CD4^+25^− cells were cultured with IL-2 alone, or were induced to become Treg by the addition of Decitibine (5 μM at day 7) and Rapamycin (109 nM at day 7). Portions of the CD4^+25^−45 RA^+ and Decitibine iTreg cultures were also re-stimulated on day 7 with anti-CD3 loaded KT64/86 cells. After a total of 14 days, cells were harvested and the expression of CD4, CD25, and Foxp3 was measured using flow cytometry. FIG. 6 summarizes the results in the context of percentage of CD4+ gated cells expressing low (Foxp3+) or high (Foxp3++) levels of Foxp3.
The next set of experiments was designed to determine whether TGFβ could synergize the effects of Decitibine to induce Foxp3 expression in the cells. Briefly, nTreg (CD4^+25^++) and CD4^+25^−45 RA^+ cells were purified from peripheral blood using magnetic beads and stimulated with anti-CD3 loaded KT64/86 cells. nTreg were cultured in the presence of IL-2 (300 U/ml) and Rapamycin (109 nM) while CD4^+25^− cells were cultured with IL-2 alone, or were induced to become Treg by the addition of Decitibine (5 μM at day 7) in the presence or absence of TGFβ (10 ng/ml, day 0). All samples were re-stimulated on day 7 with anti-CD3 loaded KT64/86 cells. After a total of 14 days, cells were harvested and expression of CD4, CD25, and Foxp3 was measured using flow cytometry.

The test system of a further series is PBMNCs. Briefly: Suppression by expanded Tregs (ratios of Tregs to PBMNCs). Format: cell-based, human. Particulars: TGFβ 10 ng/ml added to the cells. From the text:
(§1) Adding rapa, which is an mTOR inhibitor, (labeled as +) reduced mean expansion rates by 30-fold with beads resulting in ≤10-fold mean expansion rates by day 14.

In another series the test system is CD4+25+ Tregs. Kind of series: Expansion of CD4+25+ Tregs with anti-CD3/28 microbeads or KT64/86 cells plus IL-2, with or without rapa. The series is classed as cell-based, human.
Description: as §1

Series [1] concerns CD4+25−45RA+ T cells. Briefly: Expansion of CD4+25−45RA+ T cells in bead- or cell-based artificial APC cultures. Also noted: species or system human. As for the experimental part: (§2) For initial studies, to ensure inducible Treg (iTreg) conversion was being examined and not natural Treg (nTreg) expansion, CD4^+25^−45 RA^+ T cells are isolated from ficolled buffy coat cells by negative selection (CD8, CD11b, CD16, CD19, CD36, CD56 CD25) followed by CD45RA positive selection using beads. Cells are cultured in X-Vivo-15 or trypt-free media, as indicated, along with human ABneg serum (10%) and L-glutamine. rIL-2 (300 U/ml: Chiron) is added on day 2 and with re-feeds.
(§3) To simulate IDO effects, cells were cultured in low tryp+KYN using KYN at 10 μM+trypt at 1 μM until day 7 then 5 μM trypt beyond day 7 to support expansion after iTreg “imprinting” has occurred. Decitibine was added at 1-5 μM (final) to day 3 cultures. Cultures were expanded with anti-CD3/28 mAb-loaded, irradiated KT32 (FcR+) cells. Anti-CD3/28 beads (3 beads:1 cell) or 100 Gy irradiated, anti-CD3 (OKT3) loaded KT64/86 cells (1 KT cell:2 CD4^+25^− T cells) are added on day 0. Cell density is maintained at 0.2-2×10^6/ml by 50% vol/vol re-feeds. By 10 days, diluent cultured cells expanded about 30-fold, decibine about 11 fold and low tryp/KYN about 5-fold; CD4+CD127loFoxP3hi cells were 1%, 16%, and 13%, respectively (FIG. 4; upper, FoxP3hi; lower box, FoxP3int,lo). […] In studies using umbilical cord blood (UCB) nTregs, day 11 cultures re-stimulated with KT cells expanded an additional 20-fold compared to no re-stimulation.
The next set of experiments were designed to compare the effects of a HDACi in a bead- or cell-based artificial antigen-presenting cell system (KT32) for generating iTregs (FIGS. 5B and 5C). […] The cells were cultured for 3 days and SAHA added a single time at the indicated concentrations, and analyzed 7 days later (day 10) for Foxp3 expression (FIG. 5B). […] The cells were cultured for 3 days and Trichostatin A added a single time at the indicated concentrations, and analyzed 7 days later (day 10) for Foxp3 expression.
The next set of experiments were designed to compare the effects of a demethylating agent in a bead- or cell-based artificial antigen-presenting cell system (KT32) for generating iTregs (FIGS. 5D and 5E). […] The cells were cultured for 3 days and Decitibine added a single time at the indicated concentrations, and analyzed 7 days later (day 10) for Foxp3 expression (FIG. 5D). […] The cells were cultured for 3 days and 5-Azacytidine added a single time at the indicated concentrations, and analyzed 7 days later (day 10) for Foxp3 expression (FIG. 5E).
The next set of experiments were designed to compare the effects of the combination of an HDACi with a demethylating agent in a bead- and cell-based antigen-presenting cell system (FIG. 5F). […] On day 7, a single dose of Decitibine (1 μM) was added and cultures analyzed 3 days later (day 10) for Foxp3 expression.

In series [2] the test system is CD4+25−45RA+ T cells. Kind of series: iTreg generation: FoxP3 flow phenotype of cultured CD4+25−45RA+ T cells at day 10. The series is classed as cell-based, human. Particulars: for iTreg generation / induction of CD4+127loFoxP3hi cells by day 10: single agents: rapa, TGFb 10 ng/ml, SAHA 300 nM, TSA 100 nM. As for the experimental part:
as §2
In order to assay for the presence of non-Tregs and nTregs, multi-color phenotyping can be employed pre- and post-isolation and on days 7, 10, 14, 21 for both non-Tregs and nTregs (CD4/25/127lo/FoxP3) for co-expression of adhesion molecules (e.g., CD62L; LFA-1), chemokine receptors (e.g., CCR4-9; CXCR3), and cytokines (IL2, IL17, TNFa, IL10). Phosphorylated-Stat5 and p-Akt can be analyzed at 15′ post-stimulation with PMA/ionomycin.
as §3
The next set of experiments were designed to compare the effects of a HDACi in a bead- or cell-based artificial antigen-presenting cell system (KT32) for generating iTregs (FIGS. 5B and 5C). Purified human naïve T cells (CD4^+, CD25^−, CD45RA^+) were stimulated with KT32 (K562 engineered to express human CD32) loaded with anti-CD3 and CD28 antibodies. The cells were cultured for 3 days and SAHA added a single time at the indicated concentrations, and analyzed 7 days later (day 10) for Foxp3 expression (FIG. 5B). Purified human naïve T cells (CD4^+, CD25^−, CD45RA^+) were stimulated with KT32 (K562 engineered to express human CD32) loaded with anti-CD3 and CD28 antibodies. The cells were cultured for 3 days and Trichostatin A added a single time at the indicated concentrations, and analyzed 7 days later (day 10) for Foxp3 expression.
The next set of experiments were designed to compare the effects of the combination of an HDACi with a demethylating agent in a bead- and cell-based antigen-presenting cell system (FIG. 5F). Purified human naïve T cells (CD4^+, CD25^−, CD45RA^+) were stimulated with clinical grade anti-CD3/28 beads or with KT32 (K562 engineered to express human CD32) loaded with anti-CD3 and CD28 antibodies. On day 3 of culture, the specified HDACi were added. On day 7, a single dose of Decitibine (1 μM) was added and cultures analyzed 3 days later (day 10) for Foxp3 expression.

The next series concerns naïve MLR culture. Kind of series: MLR suppression by iTregs generated in B cell cultures using KYN. The series is classed as cell-based, human. Particulars: KYN added to allogeneic B cell cultures (50 μM elsewhere in the source); not blocked by 1MT. From the text: (§4) CD4^+25^− T cells, when cultured with allogeneic TLR9 activated allogeneic plasmacytoid dendritic cells (pDCs), but not B-cells, lead to the generation of iTregs, CD4^+25^+FoxP3^+ suppressor cells (FIG. 2). It was also observed that iTregs (closed), but not T cells primed to TLR activated B cells (open squares), were potently suppressive of a naïve MLR culture (x-axis are x 104; MLR used 105 naïve T cells; FIG. 3). […] Since IDO catabolizes tryptophan into kynurenines (KYN), it is believed that iTregs can be generated in B cell cultures using KYN.
It has been shown that CD4^+25^− T-cells exposed to allogeneic TLR9 activated plasmacytoid dendritic cells (pDCs), but not B-cells, leads to the generation of iTregs (Moseman et al., 2004, J Immunol 173:4433-42), CD4^+25^+FoxP3^+ suppressor cells, a process dependent upon the enzyme indoleamine 2,3-dioxygenase (IDO) that catabolizes tryptophan. […] Because obtaining high numbers of non-malignant B-cells or pDCs from leukemia/lymphoma patients would be difficult, low trypt/KYN conditions in an artificial antigen-presenting cell expansion system was examined. In considering strategies for iTreg generation, experiments were designed to focus on molecular features preferentially associated with nTregs vs naïve or T effector cells. […]

In a further series the test system is CD8+ T cell. Briefly: iTreg suppression of CD8+ T cell proliferation by CFSE dye-dilution. The series is classed as cell-based, human. The conditions noted are these: 1:16 ratio. As for the experimental part:
as §3
In vitro potency of expanded iTregs vs nTregs may be assayed for suppression in MLR and anti-CD3 mAb driven, CD8+ CFSE T cell proliferation assays.

Another series relates to CD4+25− T cells. Briefly: iTreg generation from CD4+25− T cells cultured with allogeneic TLR9 activated pDCs. The series is classed as cell-based, human. Particulars: IDO inhibition by 1MT in pDC cultures.
Description: as §4

Consider transforming growth factor-beta [TGFβ], for which, in the series with CD4+25−45RA+ cells, the Foxp3 expression result is listed as “synergizes with Decitibine to induce Foxp3 expression”. Also, the suppression result with PBMNCs was “did not increase suppression”.

Take `CO[C@H]1C[C@@H]2CC[C@@H](C)[C@@](O)(O2)C(=O)C(=O)N2CCCC[C@H]2C(=O)O[C@H]([C@H](C)C[C@@H]2CC[C@@H](O)[C@H](OC)C2)CC(=O)[C@H](C)/C=C(\C)[C@@H](O)[C@@H](OC)C(=O)[C@H](C)C[C@H](C)/C=C/C=C/C=C/1C` [rapa, rapamycin]: the “reduction of mean expansion” value in the series with CD4+25+ Tregs (Rapa added to KT64/86 driven cultures) is given as 10 fold. Moreover, the “reduction of mean expansion rates” value with CD4+25+ Tregs (rapa added, anti-CD3/28 beads) was determined as 30 fold. Besides, in the series on CD4+25+ Tregs (rapa added, anti-CD3/28 beads, day 14), the “mean expansion rates by day 14” value is recorded as no more than 10 fold.

For `CC(/C=C/C(=O)NO)=C\[C@@H](C)C(=O)c1ccc(N(C)C)cc1` [TSA, trichostatin A], in the series on CD4+25−45RA+ T cells [1] (cell-based cultures, HDACi day 3, decitibine day 7, diluent 20-fold), the “Day 10 expansions” value is listed as 15 fold. Besides, in the series with CD4+25−45RA+ T cells [2] (bead expanded cultures, day 10, diluent 1.7), the “CD4+127loFoxP3hi” value was 1.6%. Besides, the FoxP3int/lo with CD4+25−45RA+ T cells [2] (bead expanded cultures, day 10, diluent 21.8%) turned out to be 15.4%. For the same compound, the “iTreg generation / induction of CD4+127loFoxP3hi cells by day 10” value in the series with CD4+25−45RA+ T cells [2] was “No iTreg generation”.

For `O=C(CCCCCCC(=O)Nc1ccccc1)NO` [SAHA, suberoylanilide hydroxamic acid], the T cell expansion result with CD4+25−45RA+ T cells [1] (SAHA 300 nM on day 3) was “did not inhibit T cell expansion”. For the same compound, the “toxicity in T cell culture” value in the series with CD4+25−45RA+ T cells [1] (SAHA 100 μM on day 0) was “toxic”. In addition, the “iTreg generation / induction of CD4+127loFoxP3hi cells by day 10” value with CD4+25−45RA+ T cells [2] is “did not result in iTregs; also recorded: No iTreg generation”.

Regarding `Nc1ccccc1C(=O)CC(N)C(=O)O` (stereo not shown) [KYN, kynurenine], the “MLR suppression / suppressive iTregs” value with naïve MLR culture is on record as “potent MLR suppression; also recorded: potently suppressive iTregs”.

In the case of `Nc1ncn([C@H]2C[C@H](O)[C@@H](CO)O2)c(=O)n1` [decitibine, 5-aza-2′-deoxycitidine], in the series with CD4+25−45RA+ T cells [1] (anti-CD3/28 mAb-loaded KT32 cells, decitibine 1-5 μM day 3, KYN 10 μM + trypt 1 μM until day 7 then 5 μM), the “expansion by 10 days” value is listed as “about 11 fold”. Also, the “percentage of Foxp3++ cells” value in the series on CD4+25−45RA+ cells (Decitibine 5 μM and Rapamycin 109 nM at day 7, re-stimulation on day 7) was “significantly increased”. For the same compound, the Foxp3 expression result with CD4+25−45RA+ cells is on record as “some Foxp3 expression”. For the same compound, the “CD4+CD127loFoxP3hi cells” value with CD4+25−45RA+ T cells [2] (by 10 days, KT32 cultures, decitibine 1-5 μM day 3 or low tryp+KYN) is listed as 16%. Also, in the series on CD8+ T cell, the “iTreg suppression of CD8+ T cell proliferation” value came out at 41%.

`Cn1cc(C[C@H](N)C(=O)O)c2ccccc21` [1MT, 1-methyl-tryptophan]: the iTreg conversion result in the series on CD4+25− T cells was “prevented iTreg conversion”.
